Test results from ChEMBL document CHEMBL1156533 (2007).
Active and inactive are the calls of the source. The calls are words filed in the database; no cut-off is given here.

How the values were obtained:
[1] = organism: Mus musculus; assay: Antiasthmatic effect in ovalbumin-challenged BALB/c mouse assessed as decrease in eosinophil infiltration in bronchoalveolar lavage fluid; type: functional, Lung
[2] = Inhibition of IL13 production in transgenic BALB/c mouse TH2 cells at 500 uM after 48 hrs; type: functional
[3] = Inhibition of IL5 production in transgenic BALB/c mouse TH2 cells at 500 uM after 48 hrs; type: functional
[4] = Inhibition of IL4 production in transgenic BALB/c mouse TH2 cells at 500 uM after 48 hrs; type: functional
[5] = Inhibition of IL10 production in transgenic BALB/c mouse TH2 cells at 500 uM after 48 hrs; type: functional
[6] = organism: Mus musculus; assay: Antiasthmatic effect in ovalbumin-challenged BALB/c mouse assessed as decrease in IL13 level in bronchoalveolar lavage fluid by ELISA; type: functional, Lung
[7] = organism: Mus musculus; assay: Antiasthmatic effect in ovalbumin-challenged BALB/c mouse assessed as decrease in IL5 level in bronchoalveolar lavage fluid by ELISA; type: functional, Lung
[8] = Inhibition of IL13 production in transgenic BALB/c mouse TH2 cells at 50 uM after 48 hrs; type: functional
[9] = Inhibition of IL5 production in transgenic BALB/c mouse TH2 cells at 10 uM after 48 hrs; type: functional
[10] = test system: HEK293; assay: Inhibition of Bcl10-induced NF-kappaB activation in HEK293 cells by luciferase reporter gene assay; type: functional, cell-based; settings: Homo sapiens
[11] = test system: Jurkat; assay: Inhibition of TCR-mediated ERK activation in human Jurkat cells at 100 uM by Western blotting; type: cell-based
[12] = test system: Jurkat; assay: Induction of apoptosis in human Jurkat cells after 48 hrs by FACS; type: functional, cell-based
[13] = biological target: 3-phosphoinositide-dependent protein kinase 1 (Homo sapiens) (UniProt O15530); assay: Inhibition of PDK1 phosphorylation in human Jurkat cells by Western blotting
[14] = test system: TH2; assay: Induction of apoptosis in transgenic BALB/c mouse TH2 cells after 48 hrs by FACS; type: functional, cell-based
[15] = organism: Mus musculus; assay: Antiasthmatic effect in ovalbumin-challenged BALB/c mouse assessed as decrease in IL5 level in bronchoalveolar lavage fluid at 25 ug by ELISA; type: functional, Lung
[16] = biological target: T-cell-specific surface glycoprotein CD28 (Homo sapiens) (UniProt P10747); assay: Inhibition of CD28-induced NF-kappaB activation in human Jurkat cells by EMSA; type: functional, cell-based
[17] = test system: HEK293; assay: Inhibition of Carma1-induced NF-kappaB activation in HEK293 cells by luciferase reporter gene assay; type: functional, cell-based; settings: Homo sapiens
[18] = test system: Jurkat; assay: Inhibition of TCR-mediated NF-kappaB activation in human Jurkat cells at 100 uM by EMSA; type: cell-based
[19] = Inhibition of IFN-gamma production in transgenic TH1 cells at 10 uM after 48 hrs; type: functional
[20] = test system: Jurkat; assay: Inhibition of CD3/CD28-induced NF-kappaB activation in human Jurkat cells by EMSA; type: cell-based
[21] = organism: Mus musculus; assay: Antiasthmatic effect in ovalbumin-challenged BALB/c mouse assessed as decrease in IL5 level in bronchoalveolar lavage fluid at 100 ug by ELISA; type: functional, Lung
[22] = test system: TH2; assay: Antiproliferative activity in transgenic BALB/c mouse TH2 cells assessed as [3H]thymidine incorporation after […]; type: functional, cell-based
[23] = test system: Mus musculus; assay: Antiasthmatic effect in ovalbumin-challenged transgenic TH2 cells transfected SCID mouse assessed as decrease in eosinophil infiltration in bronchoalveolar lavage fluid at 100 ug administered 4-6 hrs after challenge; type: functional, Lung
[24] = Inhibition of IL10 production in transgenic BALB/c mouse TH2 cells at 100 uM after 48 hrs; type: functional
[25] = organism: Mus musculus; assay: Antiasthmatic effect in ovalbumin-challenged BALB/c mouse assessed as decrease in IL5 level in bronchoalveolar lavage fluid at 6 ug by ELISA; type: functional, Lung
[26] = test system: Mus musculus; assay: Antiasthmatic effect in ovalbumin-challenged transgenic TH2 cells transfected SCID mouse assessed as decrease in IL13 level in bronchoalveolar lavage fluid at 100 ug administered 4-6 hrs after challenge by ELISA; type: functional, Lung
[27] = test system: Dendritic cell; assay: Induction of apoptosis in LPS-stimulated BALB/c mouse bone marrow-derived dendritic cells after 48 hrs by ELISA; type: functional, cell-based
[28] = Inhibition of IL4 production in transgenic BALB/c mouse TH2 cells at 100 uM after 48 hrs; type: functional
[29] = Inhibition of IFN-gamma production in transgenic TH1 cells at 50 uM after 48 hrs; type: functional
[30] = test system: TH2; assay: Induction of apoptosis in ovalbumin-challenged transgenic BALB/c mouse TH2 cells transfected in SCID mouse assessed as decrease in viable cell in lungs; type: functional, cell-based
[31] = Inhibition of IL10 production in transgenic BALB/c mouse TH2 cells at 50 uM after 48 hrs; type: functional
[32] = Inhibition of IL13 production in transgenic BALB/c mouse TH2 cells at 10 uM after 48 hrs; type: functional
[33] = Inhibition of IL5 production in transgenic BALB/c mouse TH2 cells at 100 uM after 48 hrs; type: functional
[34] = organism: Mus musculus; assay: Antiasthmatic effect in ovalbumin-challenged BALB/c mouse assessed as decrease in IL13 level in bronchoalveolar lavage fluid at 25 ug by ELISA; type: functional, Lung
[35] = biological target: 3-phosphoinositide-dependent protein kinase 1 (Homo sapiens) (UniProt O15530); assay: Inhibition of recombinant PDK1 autophosphorylation by in vitro kinase assay
[36] = test system: TH2; assay: Inhibition of TCR-mediated ERK activation in transgenic BALB/c mouse TH2 cells at 100 uM by Western blotting; type: cell-based
[37] = organism: Mus musculus; assay: Antiasthmatic effect in ovalbumin-challenged BALB/c mouse assessed as decrease in eosinophil infiltration in bronchoalveolar lavage fluid at 100 ug; type: functional, Lung
[38] = organism: Mus musculus; assay: Antiasthmatic effect in ovalbumin-challenged BALB/c mouse assessed as decrease in perivascular eosinophil infiltration in bronchoalveolar lavage fluid; type: functional, organism-based; settings: Lung
[39] = test system: Jurkat; assay: Inhibition of TCR-mediated IkappaB degradation in human Jurkat cells after 30 mins by immunoblotting; type: cell-based
[40] = Inhibition of IL4 production in transgenic BALB/c mouse TH2 cells at 10 uM after 48 hrs; type: functional
[41] = test system: Mus musculus; assay: Antiasthmatic activity in ovalbumin-challenged BALB/c mouse assessed as reduction in airway resistance at 100 ug, intratracheally administered 4 hrs after challenge; type: functional, organism-based
[42] = organism: Mus musculus; assay: Antiasthmatic effect in ovalbumin-challenged BALB/c mouse assessed as decrease in IL13 level in bronchoalveolar lavage fluid at 6 ug by ELISA; type: functional, Lung
[43] = test system: Jurkat; assay: Inhibition of TCR-mediated JNK1 activation in human Jurkat cells at 100 uM by in vitro kinase assay; type: cell-based
[44] = test system: Jurkat; assay: Inhibition of TCR-mediated NFAT activation in human Jurkat cells at 100 uM by Western blotting; type: cell-based
[45] = test system: TH2; assay: Inhibition of TCR-mediated JNK1 activation in transgenic BALB/c mouse TH2 cells at 100 uM by in vitro kinase assay; type: cell-based
[46] = Inhibition of IL5 production in transgenic BALB/c mouse TH2 cells at 50 uM after 48 hrs; type: functional
[47] = Inhibition of IL4 production in transgenic BALB/c mouse TH2 cells at 50 uM after 48 hrs; type: functional
[48] = test system: Mus musculus; assay: Antiasthmatic activity in ovalbumin-challenged BALB/c mouse assessed as reduction in airway hyperresponsiveness at 100 ug, intratracheally administered 4 hrs after challenge; type: functional, organism-based
[49] = Inhibition of IL13 production in transgenic BALB/c mouse TH2 cells at 100 uM after 48 hrs; type: functional
[50] = organism: Mus musculus; assay: Antiasthmatic effect in ovalbumin-challenged BALB/c mouse assessed as decrease in eosinophil infiltration in bronchoalveolar lavage fluid at 25 ug; type: functional, Lung
[51] = test system: HEK293; assay: Inhibition of PKC-theta-induced NF-kappaB activation in HEK293 cells by luciferase reporter gene assay; type: functional, cell-based; settings: Homo sapiens
[52] = test system: TH2; assay: Inhibition of TCR-mediated NF-kappaB activation in transgenic BALB/c mouse TH2 cells at 100 uM by EMSA; type: cell-based
[53] = test system: TH2; assay: Inhibition of TCR-mediated NFAT activation in transgenic BALB/c mouse TH2 cells at 100 uM by Western blotting; type: cell-based
[54] = organism: Mus musculus; assay: Antiasthmatic effect in ovalbumin-challenged BALB/c mouse assessed as decrease in peribronchial eosinophil infiltration in bronchoalveolar lavage fluid; type: functional, organism-based; settings: Lung
[55] = organism: Mus musculus; assay: Antiasthmatic effect in ovalbumin-challenged BALB/c mouse assessed as decrease in IL13 level in bronchoalveolar lavage fluid at 100 ug by ELISA; type: functional, Lung
[56] = Inhibition of IFN-gamma production in transgenic TH1 cells at 100 uM after 48 hrs; type: functional
[57] = test system: Mus musculus; assay: Antiasthmatic effect in ovalbumin-challenged transgenic TH2 cells transfected SCID mouse assessed as decrease in IL5 level in bronchoalveolar lavage fluid at 100 ug administered 4-6 hrs after challenge by ELISA; type: functional, Lung
[58] = Inhibition of IFN-gamma production in transgenic TH1 cells at 500 uM after 48 hrs; type: functional
[59] = test system: TH1; assay: Induction of apoptosis in transgenic TH1 cells after 48 hrs by FACS; type: functional, cell-based
[60] = Inhibition of IL10 production in transgenic BALB/c mouse TH2 cells at 10 uM after 48 hrs; type: functional
[61] = organism: Mus musculus; assay: Antiasthmatic effect in ovalbumin-challenged BALB/c mouse assessed as decrease in eosinophil infiltration in bronchoalveolar lavage fluid at 6 ug; type: functional, Lung

Chain of 3-phosphoinositide-dependent protein kinase 1 (Homo sapiens) (O15530 whole entry, looked up): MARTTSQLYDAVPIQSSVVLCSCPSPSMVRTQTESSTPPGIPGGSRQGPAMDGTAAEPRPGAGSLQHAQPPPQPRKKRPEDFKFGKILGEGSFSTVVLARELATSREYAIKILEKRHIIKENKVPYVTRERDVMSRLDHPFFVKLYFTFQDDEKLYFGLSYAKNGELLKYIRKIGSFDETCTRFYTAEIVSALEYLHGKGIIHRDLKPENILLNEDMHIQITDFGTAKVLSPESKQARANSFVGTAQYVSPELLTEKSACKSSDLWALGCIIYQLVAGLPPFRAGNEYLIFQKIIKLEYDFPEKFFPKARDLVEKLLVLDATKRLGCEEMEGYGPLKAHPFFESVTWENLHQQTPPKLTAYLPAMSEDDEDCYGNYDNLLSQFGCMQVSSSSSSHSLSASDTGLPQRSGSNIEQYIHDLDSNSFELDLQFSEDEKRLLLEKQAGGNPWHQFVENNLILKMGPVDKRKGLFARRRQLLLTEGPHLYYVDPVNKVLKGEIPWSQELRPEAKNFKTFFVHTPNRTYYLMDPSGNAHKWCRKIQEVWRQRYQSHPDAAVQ
Chain of T-cell-specific surface glycoprotein CD28 (Homo sapiens) (P10747 whole entry): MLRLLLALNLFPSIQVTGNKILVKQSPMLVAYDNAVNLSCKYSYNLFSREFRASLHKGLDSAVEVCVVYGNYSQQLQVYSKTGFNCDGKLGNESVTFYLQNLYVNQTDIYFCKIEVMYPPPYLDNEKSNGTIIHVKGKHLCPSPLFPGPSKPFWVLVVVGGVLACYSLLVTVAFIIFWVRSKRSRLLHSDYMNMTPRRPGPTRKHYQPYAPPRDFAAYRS

Q: Which Activity [1] does the source give for `O=C(O)c1cccnc1C(=O)O` [QUINOLINIC ACID] here?
A: The Activity was 335000.

Q: What about the Activity [2] of the same molecule?
A: The Activity was 15.4 ng/mL.

Q: What about the Activity [3] of the same molecule?
A: Its Activity is 4.19 ng/mL.

Q: And the Activity [4]?
A: The Activity was 11.3 ng/mL.

Q: What about the Activity [5] of the same molecule?
A: Its Activity is 8.36 ng/mL.

Q: And the Activity [6]?
A: Its Activity is 263 pg/mL.

Q: What about the Activity [7] of the same molecule?
A: Its Activity is 312 pg/mL.

Q: What does the source list for `Nc1c(O)cccc1C(=O)O`?
A: Activity [8]: 4.3 ng/mL; Activity [9]: 3.24 ng/mL; Activity [10]: inactive; Activity [1]: 155000; Activity [11]: inactive; Activity [12]: Active; Activity [13]: Active; Activity [14]: Active; Activity [15]: 144 pg/mL; Activity [16]: Active; Activity [17]: inactive; Activity [18]: Active; Activity [19]: 29.7 ng/mL; Activity [20]: Active; Activity [21]: 153 pg/mL; Activity [22]: Active; Activity [23]: 11000; Activity [24]: 2.37 ng/mL; Activity [25]: 219 pg/mL; Activity [26]: <10 pg/mL; Activity [27]: inactive; Activity [28]: 2 ng/mL; Activity [29]: 1 ng/mL; Activity [30]: Active; Activity [31]: 4.88 ng/mL; Activity [32]: 14.9 ng/mL; Activity [33]: <0.1 ng/mL; Activity [34]: 91 pg/mL; Activity [35]: Dose-dependent effect; Activity [36]: inactive; Activity [37]: 84000; Activity [38]: Active; Activity [39]: inactive; Activity [40]: 11.5 ng/mL; Activity [41]: Active; Activity [42]: 147 pg/mL; Activity [43]: inactive; Activity [44]: inactive; Activity [45]: inactive; Activity [46]: 1.15 ng/mL; Activity [47]: 6.7 ng/mL; Activity [48]: Active; Activity [6]: 66 pg/mL; Activity [49]: 1.7 ng/mL; Activity [50]: 58000; Activity [51]: inactive; Activity [52]: Active; Activity [53]: inactive; Activity [54]: Active; Activity [7]: 141 pg/mL; Activity [55]: 88 pg/mL; Activity [56]: 1.8 ng/mL; Activity [57]: <10 pg/mL; Activity [58]: 1.7 ng/mL; Activity [59]: Active; Activity [60]: 7.77 ng/mL; Activity [61]: 190000
